Data: patent publication US11130756B2, “[1,2,4]Triazolo[4,3-A]pyridinyl substituted indole compounds” (BRISTOL-MYERS SQUIBB COMPANY, priority 2017, dated 2021)

Assays:
Type in all cases: cell-based
[1] = target: T1, human TLR7 (Homo sapiens, UniProt Q9NYK1); assay: TLR7 inhibition reporter assay (HEK-Blue, SEAP); conditions: HEK-Blue cells overexpressing human TLR7, gardiquimod 7.5 μM, 22 hour incubation
T1 construct: host or cells: HEK-Blue cells
T1 sequence (Q9NYK1 27-1049): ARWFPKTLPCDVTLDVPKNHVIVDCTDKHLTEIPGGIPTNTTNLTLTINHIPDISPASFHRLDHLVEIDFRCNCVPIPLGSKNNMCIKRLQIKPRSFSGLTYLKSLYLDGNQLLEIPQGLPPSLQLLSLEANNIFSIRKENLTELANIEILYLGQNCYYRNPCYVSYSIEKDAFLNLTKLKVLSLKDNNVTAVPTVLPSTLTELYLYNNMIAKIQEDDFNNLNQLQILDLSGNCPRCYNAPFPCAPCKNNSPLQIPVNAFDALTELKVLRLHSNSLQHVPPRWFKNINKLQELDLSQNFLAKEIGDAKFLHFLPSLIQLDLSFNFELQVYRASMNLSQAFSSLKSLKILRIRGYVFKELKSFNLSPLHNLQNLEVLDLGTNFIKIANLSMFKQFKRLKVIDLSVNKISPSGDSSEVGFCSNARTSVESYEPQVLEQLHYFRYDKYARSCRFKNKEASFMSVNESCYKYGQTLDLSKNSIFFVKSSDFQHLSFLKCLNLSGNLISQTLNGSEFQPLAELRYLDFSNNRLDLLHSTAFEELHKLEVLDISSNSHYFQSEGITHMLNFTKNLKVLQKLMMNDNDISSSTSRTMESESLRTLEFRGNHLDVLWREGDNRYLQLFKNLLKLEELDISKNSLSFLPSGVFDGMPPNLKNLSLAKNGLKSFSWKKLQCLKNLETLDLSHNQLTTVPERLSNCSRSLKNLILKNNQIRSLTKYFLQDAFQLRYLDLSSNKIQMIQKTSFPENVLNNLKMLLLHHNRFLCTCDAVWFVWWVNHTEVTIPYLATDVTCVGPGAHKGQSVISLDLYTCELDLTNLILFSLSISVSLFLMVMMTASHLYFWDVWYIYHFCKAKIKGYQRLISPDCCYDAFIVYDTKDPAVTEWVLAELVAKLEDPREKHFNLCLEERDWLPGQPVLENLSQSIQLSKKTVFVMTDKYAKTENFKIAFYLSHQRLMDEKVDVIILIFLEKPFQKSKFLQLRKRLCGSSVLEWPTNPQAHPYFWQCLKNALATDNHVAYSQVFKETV
Method in brief: (§1)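 Screening used HEK-Blue cells overexpressing one human TLR (7, 8 or 9) and an IFN-β minimal promoter–NF-κB/AP-1 SEAP construct. Stimulation lasted 22 h at 37 °C with receptor-specific agonist: gardiquimod, R848 or ODN2006 at 7.5 μM, 15.9 μM and 5 nM.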

[2] = target: T2, human TLR8 (Homo sapiens, UniProt Q9NR97); assay: TLR8 inhibition reporter assay (HEK-Blue, SEAP); conditions: HEK-Blue cells overexpressing human TLR8, R848 15.9 μM, 22 hour incubation
T2 construct: host or cells: HEK-Blue cells
T2 sequence (Q9NR97 27-1041): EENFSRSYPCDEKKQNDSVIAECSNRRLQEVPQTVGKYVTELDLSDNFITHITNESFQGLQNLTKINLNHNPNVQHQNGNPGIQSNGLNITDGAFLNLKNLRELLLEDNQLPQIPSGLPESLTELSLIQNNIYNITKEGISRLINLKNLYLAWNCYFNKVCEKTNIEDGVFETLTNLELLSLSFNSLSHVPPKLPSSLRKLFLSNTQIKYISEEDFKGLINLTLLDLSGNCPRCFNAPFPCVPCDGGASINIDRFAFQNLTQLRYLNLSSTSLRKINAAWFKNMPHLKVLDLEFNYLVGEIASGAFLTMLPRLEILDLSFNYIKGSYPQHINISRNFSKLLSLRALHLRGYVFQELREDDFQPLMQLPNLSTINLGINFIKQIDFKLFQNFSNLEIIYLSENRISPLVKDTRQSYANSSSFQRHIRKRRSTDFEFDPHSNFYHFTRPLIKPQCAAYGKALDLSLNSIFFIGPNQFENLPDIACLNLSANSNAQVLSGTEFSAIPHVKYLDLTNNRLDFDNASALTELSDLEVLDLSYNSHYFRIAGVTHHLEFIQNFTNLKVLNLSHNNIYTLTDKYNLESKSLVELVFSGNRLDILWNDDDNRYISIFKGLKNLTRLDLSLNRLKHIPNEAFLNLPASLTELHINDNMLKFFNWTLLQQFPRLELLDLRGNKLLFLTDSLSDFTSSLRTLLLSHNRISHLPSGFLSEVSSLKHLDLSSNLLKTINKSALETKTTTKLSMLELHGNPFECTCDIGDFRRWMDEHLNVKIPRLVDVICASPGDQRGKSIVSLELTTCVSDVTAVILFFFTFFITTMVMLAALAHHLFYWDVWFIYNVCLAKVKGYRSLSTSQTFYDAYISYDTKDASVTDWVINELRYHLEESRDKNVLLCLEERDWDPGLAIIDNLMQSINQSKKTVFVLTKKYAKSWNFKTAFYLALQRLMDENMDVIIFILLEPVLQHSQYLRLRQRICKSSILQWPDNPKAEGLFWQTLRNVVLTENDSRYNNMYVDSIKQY
Method in brief: as §1

[3] = target: T3, human TLR9 (Homo sapiens, UniProt Q9NR96); assay: TLR9 inhibition reporter assay (HEK-Blue, SEAP); conditions: HEK-Blue cells overexpressing human TLR9, ODN2006 5 nM, 22 hour incubation
T3 construct: host or cells: HEK-Blue cells
T3 sequence (Q9NR96 26-1032): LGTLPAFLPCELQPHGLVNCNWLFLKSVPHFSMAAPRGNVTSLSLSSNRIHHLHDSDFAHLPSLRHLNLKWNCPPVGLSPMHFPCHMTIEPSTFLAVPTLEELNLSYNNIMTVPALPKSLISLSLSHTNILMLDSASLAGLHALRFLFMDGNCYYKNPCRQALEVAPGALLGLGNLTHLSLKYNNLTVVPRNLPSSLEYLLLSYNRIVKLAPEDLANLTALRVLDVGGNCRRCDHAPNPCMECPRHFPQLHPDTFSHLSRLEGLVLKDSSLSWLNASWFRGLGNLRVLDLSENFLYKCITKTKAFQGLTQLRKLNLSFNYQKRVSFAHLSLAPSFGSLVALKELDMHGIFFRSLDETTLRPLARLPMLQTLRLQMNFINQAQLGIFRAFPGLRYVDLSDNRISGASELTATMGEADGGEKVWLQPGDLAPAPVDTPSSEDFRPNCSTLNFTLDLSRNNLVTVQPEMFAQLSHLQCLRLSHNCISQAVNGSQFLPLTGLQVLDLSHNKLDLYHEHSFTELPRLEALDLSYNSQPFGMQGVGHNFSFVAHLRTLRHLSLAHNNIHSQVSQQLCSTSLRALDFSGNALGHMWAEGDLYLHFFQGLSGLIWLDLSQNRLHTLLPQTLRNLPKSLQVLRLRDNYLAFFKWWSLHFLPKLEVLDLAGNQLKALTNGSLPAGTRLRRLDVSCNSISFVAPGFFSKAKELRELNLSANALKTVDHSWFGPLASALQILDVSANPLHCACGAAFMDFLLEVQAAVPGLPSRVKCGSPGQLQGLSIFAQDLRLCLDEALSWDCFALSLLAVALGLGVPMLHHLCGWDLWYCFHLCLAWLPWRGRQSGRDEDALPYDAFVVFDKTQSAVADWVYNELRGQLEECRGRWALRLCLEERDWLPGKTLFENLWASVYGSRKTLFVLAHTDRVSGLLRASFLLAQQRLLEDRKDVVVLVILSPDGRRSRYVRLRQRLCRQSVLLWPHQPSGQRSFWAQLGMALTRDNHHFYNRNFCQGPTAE
Method in brief: as §1

IC50 [1] [µM] | IC50 [2] [µM] | IC50 [3] [µM] | Compound
0.0013 | 0.0046 | 1.78 | Cc1c(-c2[nH]c3ccc(C4CCN(C5CCOCC5)CC4)cc3c2C(C)C)cn2cnnc2c1C [Example 78, 6-(3-isopropyl-5-(1-(tetrahydro-2H-pyran-4-yl)piperidin-4-yl)-1H-indol-2-yl)-7,8-dimethyl-[1,2,4]triazolo[4,3-a]pyridine]
0.0011 | 0.002 | 3.53 | Cc1c(-c2[nH]c3ccc(C4CCN(CC5(C)COC5)CC4)cc3c2C(C)C)cn2cnnc2c1C [Example 79, 6-(3-isopropyl-5-(1-((3-methyloxetan-3-yl)methyl)piperidin-4-yl)-1H-indol-2-yl)-7,8-dimethyl-[1,2,4]triazolo[4,3-a]pyridine]
0.0023 | 0.0058 | 4.55 | Cc1c(-c2[nH]c3ccc(C4CCN(CC5(C)COC5)CC4)cc3c2C(C)C)cn2cnnc2c1Cl [Example 80, 8-chloro-6-(3-isopropyl-5-(1-((3-methyloxetan-3-yl)methyl)piperidin-4-yl)-1H-indol-2-yl)-7-methyl-[1,2,4]triazolo[4,3-a)pyridine]
0.0025 | 0.0108 | 2.26 | Cc1c(-c2[nH]c3ccc(C4CCN(C5CCOCC5)CC4)cc3c2C(C)C)cn2cnnc2c1Cl [Example 81, 8-chloro-6-(3-isopropyl-5-(1-(tetrahydro-2H-pyran-4-yl)piperidin-4-yl)-1H-indol-2-yl)-7-methyl-[1,2,4]triazolo[4,3-a]pyridine]
0.0049 | 0.153 | ≥ 50 | Cc1c(-c2[nH]c3ccc(C4CCN(C5COC5)CC4)cc3c2C(C)C)cn2cnnc2c1Cl [Example 82, 8-chloro-6-(3-isopropyl-5-(1-(oxetan-3-yl)piperidin-4-yl)-1H-indol-2-yl)-7-methyl-[1,2,4] triazolo[4,3-a]pyridine]
0.0025 | 0.0067 | 1.99 | Cc1c(-c2[nH]c3ccc(C4CCN(C5CCOC(C)(C)C5)CC4)cc3c2C(C)C)cn2cnnc2c1C (stereo not drawn) [Example 85, 6-(5-(1-(2,2-dimethyltetrahydro-2H-pyran-4-yl)piperidin-4-yl)-3-isopropyl-1H-indol-2-yl)-7,8-dimethyl-[1,2,4]triazolo[4,3-a]pyridine]
0.0024 | 0.0128 | 1.3 | Cc1c(-c2[nH]c3ccc(C4CCN(C5CC(C)OC(C)C5)CC4)cc3c2C(C)C)cn2cnnc2c1C (stereo not drawn) [Example 87, 6-(5-(1-(2,6-dimethyltetrahydro-2H-pyran-4-yl)piperidin-4-yl)-3-isopropyl-1H-indol-2-yl)-7,8-dimethyl-[1,2,4]triazolo[4,3-a]pyridine]
0.0019 | 0.0334 | 0.344 | COc1cc(-c2[nH]c3ccc(C4CCN(C5CCOCC5)CC4)cc3c2C(C)C)cn2cnnc12 [Example 88, 6-(3-isopropyl-5-(1-(tetrahydro-2H-pyran-4-yl)piperidin-4-yl)-1H-indol-2-yl)-8-methoxy-[1,2,4]triazolo[4,3-a]pyridine]

The next lines start with the compound.

Compound | IC50 [1] [µM] | IC50 [2] [µM] | IC50 [3] [µM]
Cc1c(-c2[nH]c3ccc(C4CCN(Cc5cn(C)nn5)CC4)cc3c2C(C)C)cn2cnnc2c1C [Example 83, 6-(3-isopropyl-5-(1-((1-methyl-1H-1,2,3-triazol-4-yl)methyl)piperidin-4-yl)-1H-indol-2-yl)-7,8-dimethyl-[1,2,4]triazolo[4,3-a]pyridine] | 0.0034 | 0.0072 | 0.875
Cc1c(-c2[nH]c3ccc(C4CCN(Cc5cn(C)nn5)CC4)cc3c2C(C)C)cn2cnnc2c1Cl [Example 84, 8-chloro-6-(3-isopropyl-5-(1-((1-methyl-1H-1,2,3-triazol-4-yl)methyl)piperidin-4-yl)-1H-indol-2-yl)-7-methyl-[1,2,4]triazolo[4,3-a]pyridine] | 0.0057 | 0.0216 | 1.11
COc1cc(-c2[nH]c3ccc(C4CCN(C5COC5)CC4)cc3c2C(C)C)cn2cnnc12 [Example 86, 6-(3-isopropyl-5-(1-(oxetan-3-yl)piperidin-4-yl)-1H-indol-2-yl)-8-methoxy-[1,2,4]triazolo[4,3-a]pyridine] | 0.0012 | 0.0268 | 6.2
COc1ncc(CN2CCC(c3ccc4[nH]c(-c5cn6cnnc6c(C)c5C)c(C(C)C)c4c3)CC2)cn1 [Example 89, 6-(3-isopropyl-5-(1-((2-methoxypyrimidin-5-yl)methyl)piperidin-4-yl)-1H-indol-2-yl)-7,8-dimethyl-[1,2,4]triazolo[4,3-a]pyridine] | 0.0001 | 0.0033 | 0.773
COc1cc(-c2[nH]c3ccc(C4CCN(CC5(C)COC5)CC4)cc3c2C(C)C)cn2cnnc12 [Example 90, 6-(3-isopropyl-5-(1-((3-methyloxetan-3-yl)methyl)piperidin-4-yl)-1H-indol-2-yl)-8-methoxy-[1,2,4]triazolo[4,3-a]pyridine] | 0.0173 | 0.245 | 1.5
